# Source: publication PMC7044277 (Nature Communications, 2020)
# “And” between values parts separate entries of the source, which are not always exact repeats. Equal values may be shown once.
# Experiments:
# Assay type in all cases: cell-based
# [1] = target: T1, 320 non-olfactory GPCRs (Homo sapiens, UniProt P20309)
# T1 construct: expressed in transfected cells; host or cells: HTLA cells
# [2] = target: 320 non-olfactory GPCRs (Homo sapiens, UniProt P30411)
# [3] = target: T2, 320 non-olfactory GPCRs (Homo sapiens, UniProt Q92847)
# T2 construct: expressed in transfected cells; host or cells: HTLA cells
# T2 sequence (Q92847 whole entry): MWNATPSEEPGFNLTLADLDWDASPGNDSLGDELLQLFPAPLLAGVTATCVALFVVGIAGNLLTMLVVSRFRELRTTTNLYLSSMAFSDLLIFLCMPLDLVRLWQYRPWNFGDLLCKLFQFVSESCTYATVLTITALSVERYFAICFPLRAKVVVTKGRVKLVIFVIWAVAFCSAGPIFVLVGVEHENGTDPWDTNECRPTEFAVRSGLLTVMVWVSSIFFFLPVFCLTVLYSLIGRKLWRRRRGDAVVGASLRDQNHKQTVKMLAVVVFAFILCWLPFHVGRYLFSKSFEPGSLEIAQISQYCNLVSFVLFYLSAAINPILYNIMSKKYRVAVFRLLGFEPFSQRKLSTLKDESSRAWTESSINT
# [4] = target: T3, 320 non-olfactory GPCRs (Homo sapiens, UniProt Q9H244); conditions: receptor P2RY12; replicate values, Fig_4g
# T3 construct: expressed in transfected cells; host or cells: HTLA cells
# T3 sequence (Q9H244 whole entry): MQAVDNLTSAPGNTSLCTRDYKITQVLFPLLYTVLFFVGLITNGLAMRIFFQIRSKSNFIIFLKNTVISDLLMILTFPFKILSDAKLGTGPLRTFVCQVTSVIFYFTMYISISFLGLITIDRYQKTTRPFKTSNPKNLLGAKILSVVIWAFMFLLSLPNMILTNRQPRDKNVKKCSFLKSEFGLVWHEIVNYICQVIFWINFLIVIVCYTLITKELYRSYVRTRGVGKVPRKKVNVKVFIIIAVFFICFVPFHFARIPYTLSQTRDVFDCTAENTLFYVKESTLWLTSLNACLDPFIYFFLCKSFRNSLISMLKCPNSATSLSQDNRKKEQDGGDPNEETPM
# 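For Fold of Basal in this document: compound tested at 1 µM final concentration.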
# 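For GPCRome agonism screen response in this document: fold over basal response of each receptor without drug.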
# T1 sequence (P20309 whole entry): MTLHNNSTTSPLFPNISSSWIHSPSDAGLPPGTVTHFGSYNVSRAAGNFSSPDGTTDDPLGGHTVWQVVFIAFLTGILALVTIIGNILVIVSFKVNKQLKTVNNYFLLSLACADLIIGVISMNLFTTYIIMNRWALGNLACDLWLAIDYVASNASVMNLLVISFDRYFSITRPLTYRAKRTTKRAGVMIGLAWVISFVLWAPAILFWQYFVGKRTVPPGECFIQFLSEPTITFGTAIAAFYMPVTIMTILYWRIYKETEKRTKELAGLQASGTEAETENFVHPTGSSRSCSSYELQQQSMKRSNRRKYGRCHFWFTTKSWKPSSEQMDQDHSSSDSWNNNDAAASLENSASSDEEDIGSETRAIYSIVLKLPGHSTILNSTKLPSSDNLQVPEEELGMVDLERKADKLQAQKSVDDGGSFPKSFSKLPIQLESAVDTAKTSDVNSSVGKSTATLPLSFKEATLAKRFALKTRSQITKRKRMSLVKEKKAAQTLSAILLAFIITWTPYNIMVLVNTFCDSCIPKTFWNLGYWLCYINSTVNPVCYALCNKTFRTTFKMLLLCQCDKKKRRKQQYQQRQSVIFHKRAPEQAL
# 320 non-olfactory GPCRs (Homo sapiens, UniProt P30411), sequence (P30411 whole entry): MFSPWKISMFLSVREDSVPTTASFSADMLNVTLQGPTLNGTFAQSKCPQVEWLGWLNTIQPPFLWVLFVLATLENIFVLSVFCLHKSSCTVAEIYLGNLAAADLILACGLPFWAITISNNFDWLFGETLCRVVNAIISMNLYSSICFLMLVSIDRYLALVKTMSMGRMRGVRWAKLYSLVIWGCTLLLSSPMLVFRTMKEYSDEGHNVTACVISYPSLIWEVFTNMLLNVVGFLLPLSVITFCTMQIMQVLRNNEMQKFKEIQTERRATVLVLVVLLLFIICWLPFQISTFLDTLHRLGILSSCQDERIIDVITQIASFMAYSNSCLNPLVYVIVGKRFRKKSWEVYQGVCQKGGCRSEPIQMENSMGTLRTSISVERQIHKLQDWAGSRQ
smiles,measurement,setting,value
CCOc1cccc2cc(C(C)NCC3(O)CCCCC3)oc12 (stereo not shown) [O4LE6],Fold of Basal,[1],0.7288 and 1.095 and 0.9519 and 0.808
same,Fold of Basal,[2],1.112 and 0.7321 and 0.9055 and 1.0914
same,Fold of Basal,[3],0.8362 and 0.6901 and 0.8172 and 0.8114
same,GPCRome agonism screen response,[4],1.331 and 0.8524 and 1.417 and 1.455
